Holding throughout (format): in vivo, rat
Experiment [1] deals with male spontaneously hypertensive rats (SHR). Nature of the experiment: Pharmacological Test-1: blood pressure after oral administration in spontaneously hypertensive rats. As to conditions: for Blood Pressure (mmHg) 1 hr. / Blood Pressure (mmHg) 3 hrs. / Blood Pressure (mmHg) 6 hrs. / Blood Pressure (mmHg) 9 hrs. / Blood Pressure (mmHg) 12 hrs.: oral; for Blood Pressure (mmHg) 1 hr.: variation of blood pressure 1 hr. after administration; for Blood Pressure (mmHg) 3 hrs.: variation of blood pressure 3 hrs. after administration; for Blood Pressure (mmHg) 6 hrs.: variation of blood pressure 6 hrs. after administration; for lapse of time until approximately maximum blood pressure depression / blood pressure depression, result in words: summary of Table 1; for Blood Pressure (mmHg) 9 hrs.: variation of blood pressure 9 hrs. after administration; for Blood Pressure (mmHg) 12 hrs.: variation of blood pressure 12 hrs. after administration. As for the experimental part:
(§1) This test was performed using male spontaneously hypertensive rats (SHR, 15 weeks old or older, 300 to 400 g). Under halothane anesthesia, the left femoral arteries of the rats were cannulated using a polyethylene cannula. The cannula was connected to a device for blood pressure measurement. Then, the rats were placed in the Bollman-type cages. After one hour, it was confirmed that the blood pressure was kept constant. When the rats waked, they were orally administered with the test compound, and variation of blood pressure after the administration was measured as time passed. The test compound was suspended or dissolved in 1% aqueous methylcellulose solution and administered in an amount of 0.2 mL per 100 g of body weight.

Experiment [2] concerns normal male rats of Wister strain. Briefly: Pharmacological Test-4: blood pressure after oral administration in normal rats. Particulars: for Blood Pressure (mmHg) 1 hr. / Blood Pressure (mmHg) 3 hrs. / Blood Pressure (mmHg) 6 hrs. / Blood Pressure (mmHg) 9 hrs. / Blood Pressure (mmHg) 12 hrs.: oral; for Blood Pressure (mmHg) 1 hr.: 1 hr. after administration; for Blood Pressure (mmHg) 3 hrs.: 3 hrs. after administration; for Blood Pressure (mmHg) 6 hrs.: 6 hrs. after administration; for Blood Pressure (mmHg) 9 hrs.: 9 hrs. after administration; for Blood Pressure (mmHg) 12 hrs.: 12 hrs. after administration; for effect on normal blood pressure, result in words: summary of Table 4. As for the experimental part: as §1
This test was performed by measuring the blood pressure in the same manner as in the above pharmacological test-1 using normal male rats of Wister strain (15 weeks old or older, 300 to 400 g, not-fasted). The test results are set forth in Table 4.The compound of the invention examined in this test was the same as that employed in the pharmacological test-1.

Experiment [3] deals with male DOCA salt hypertensive rats (DOCAR). Briefly: Pharmacological Test-2: blood pressure after oral administration in DOCA salt hypertensive rats. As to conditions: for Blood Pressure (mmHg) 1 hr. / Blood Pressure (mmHg) 3 hrs. / Blood Pressure (mmHg) 6 hrs. / Blood Pressure (mmHg) 9 hrs. / Blood Pressure (mmHg) 12 hrs.: DOCA salt hypertensive rats, oral, 3 mg/kg; for Blood Pressure (mmHg) 1 hr.: 1 hr. after administration; for Blood Pressure (mmHg) 3 hrs.: 3 hrs. after administration; for Blood Pressure (mmHg) 6 hrs.: 6 hrs. after administration; for Blood Pressure (mmHg) 9 hrs.: 9 hrs. after administration; for Blood Pressure (mmHg) 12 hrs.: 12 hrs. after administration; for lapse of time until approximately maximum blood pressure depression: summary of 'Tables 1 and 2' as printed after Table 3. As for the experimental part:
as §1
This test was performed by measuring the blood pressure in the same manner as in the above pharmacological test-1 using male DOCA salt hypertensive rats (DOCAR, 15 weeks old or older, 300 to 400 g, not-fasted). The test results are set forth in Table 2.The compound of the invention examined in this test was the same as that employed in the pharmacological test-1.

The test system of experiment [4] is male Dahl salt sensitive male rats (DahlSR). Briefly: Pharmacological Test-3: blood pressure after oral administration in Dahl salt sensitive rats. As to conditions: 3 mg/kg; for Blood Pressure (mmHg) 1 hr.: 1 hr. after administration; for Blood Pressure (mmHg) 3 hrs.: 3 hrs. after administration; for Blood Pressure (mmHg) 6 hrs.: 6 hrs. after administration; for Blood Pressure (mmHg) 9 hrs.: 9 hrs. after administration; for Blood Pressure (mmHg) 12 hrs.: 12 hrs. after administration. As for the experimental part: as §1
This test was performed in the same manner as in the above pharmacological test-1 using male Dahl salt sensitive male rats (DahlSR, 15 weeks old or older, 300 to 400 g, not-fasted). The compound of the invention examined in this test was the same as that employed in the pharmacological test-1.

Results on five compounds are retold here after patent US6706705B1, “Quinazoline derivatives” (Nippon Chemiphar Co., Ltd., priority 1994, dated 2004).

On to `COc1cc2nc(N3CCN(C(=O)c4ccccc4)CC3)nc(N)c2cc1OC.Cl` [Comp. [C], 4-amino-2-(4-benzoyl-1-piperazinyl)-6,7-dimethoxyquinazoline hydrochloride], for which, in experiment [1] (1 mg/kg), the “Blood Pressure (mmHg) 1 hr.” value is recorded as −36 mmHg, the “Blood Pressure (mmHg) 3 hrs.” value is reported as −31 mmHg and the “Blood Pressure (mmHg) 6 hrs.” value is given as −39 mmHg. Further, in experiment [1] (3 mg/kg), the “Blood Pressure (mmHg) 1 hr.” value is given as −64 mmHg, the “Blood Pressure (mmHg) 3 hrs.” value was −64 mmHg and the “Blood Pressure (mmHg) 6 hrs.” value is −61 mmHg. Also, in experiment [1], the “lapse of time until approximately maximum blood pressure depression” value (“lapse” below) was “one hour”.

In the case of `COc1cc2nc(N3CCN(C(=O)c4ccc(O)cc4)CC3)nc(N)c2cc1OC.Cl` [Comp. [D], 4-amino-2-[4-(4-hydroxybenzoyl)-1-piperazinyl]-6,7-dimethoxyquinazoline hydrochloride], in experiment [1] (1 mg/kg), the “Blood Pressure (mmHg) 1 hr.” value is recorded as 2 mmHg, the “Blood Pressure (mmHg) 3 hrs.” value was −3 mmHg and the “Blood Pressure (mmHg) 6 hrs.” value is given as −6 mmHg. Also, in experiment [1] (3 mg/kg), the “Blood Pressure (mmHg) 1 hr.” value is given as −5 mmHg, the “Blood Pressure (mmHg) 3 hrs.” value is −6 mmHg and the “Blood Pressure (mmHg) 6 hrs.” value was −8 mmHg. For the same compound, the “blood pressure depression, result in words” value in experiment [1] is given as “very little blood pressure depression”.

In the case of `COc1cc2nc(N3CCN(C(=O)C4COc5ccccc5O4)CC3)nc(N)c2cc1OC` (stereo not drawn) [Doxa., doxazosin mesilate], in experiment [1] (1 mg/kg), the “Blood Pressure (mmHg) 1 hr.” value was −19 mmHg, the “Blood Pressure (mmHg) 3 hrs.” value is reported as −21 mmHg and the “Blood Pressure (mmHg) 6 hrs.” value is on record as −19 mmHg. Besides, in experiment [1] (3 mg/kg), the “Blood Pressure (mmHg) 1 hr.” value is −35 mmHg, the “Blood Pressure (mmHg) 3 hrs.” value was −32 mmHg and the “Blood Pressure (mmHg) 6 hrs.” value is recorded as −29 mmHg. In experiment [1] (10 mg/kg), the “Blood Pressure (mmHg) 1 hr.” value is given as −37 mmHg, the “Blood Pressure (mmHg) 3 hrs.” value is −50 mmHg and the “Blood Pressure (mmHg) 6 hrs.” value is on record as −35 mmHg. Moreover, in experiment [2] (3 mg/kg), the “Blood Pressure (mmHg) 1 hr.” value is listed as −24 mmHg, the “Blood Pressure (mmHg) 3 hrs.” value is recorded as −19 mmHg, the “Blood Pressure (mmHg) 6 hrs.” value is recorded as −20 mmHg and the “Blood Pressure (mmHg) 9 hrs.” value is reported as −22 mmHg. Further, the “Blood Pressure (mmHg) 12 hrs.” value in experiment [2] (3 mg/kg) is listed as −23 mmHg. Also, the “effect on normal blood pressure, result in words” value (“effect on normal blood pressure” for short) in experiment [2] is listed as “largely decrease normal blood pressure”.

Regarding `COc1cc2nc(N3CCN(C(=O)c4cc(C(C)(C)C)c(O)c(C(C)(C)C)c4)CC3)nc(N)c2cc1OC.Cl` [Invention, 4-amino-2-[4-(3,5-di-t-butyl-4-hydroxybenzoyl)-1-piperazinyl]-6,7-dimethoxyquinazoline hydrochloride], the “Blood Pressure (mmHg) 1 hr.” value in experiment [1] (1 mg/kg) is reported as −4 mmHg; in experiment [1] (3 mg/kg), −29 mmHg; in experiment [3] it was −15 mmHg; in experiment [4] it was −11 mmHg; in experiment [2] (1 mg/kg), −4 mmHg; in experiment [2] (3 mg/kg), −5 mmHg. Also, the “Blood Pressure (mmHg) 3 hrs.” value in experiment [1] (1 mg/kg) is listed as −25 mmHg; in experiment [1] (3 mg/kg), −60 mmHg; in experiment [3], −42 mmHg; in experiment [4] it was −25 mmHg; in experiment [2] (1 mg/kg) it was −11 mmHg; in experiment [2] (3 mg/kg) it was −9 mmHg. The “Blood Pressure (mmHg) 6 hrs.” value in experiment [1] (1 mg/kg) is recorded as −41 mmHg; in experiment [1] (3 mg/kg), −75 mmHg; in experiment [3], −62 mmHg; in experiment [4], −49 mmHg; in experiment [2] (1 mg/kg), −21 mmHg; in experiment [2] (3 mg/kg), −19 mmHg. Moreover, the “Blood Pressure (mmHg) 9 hrs.” value in experiment [1] (1 mg/kg) is −44 mmHg; in experiment [1] (3 mg/kg), −64 mmHg; in experiment [3] it was −49 mmHg; in experiment [4] it was −50 mmHg; in experiment [2] (1 mg/kg), −22 mmHg; in experiment [2] (3 mg/kg), −21 mmHg. Also, the “Blood Pressure (mmHg) 12 hrs.” value in experiment [1] (1 mg/kg) is −39 mmHg; in experiment [1] (3 mg/kg), −60 mmHg; in experiment [3] it was −37 mmHg; in experiment [4] it was −52 mmHg; in experiment [2] (1 mg/kg) it was −23 mmHg; in experiment [2] (3 mg/kg), −24 mmHg. Also, the “blood pressure depression, result in words” value in experiment [1] is given as “slowly decreases the blood pressure”. Also, the “lapse” value in experiment [1] and in experiment [3] was “six hours” in each case. Further, the “effect on normal blood pressure” value in experiment [2] is listed as “affects the normal blood pressure only slightly”.

In the case of `COc1cc2nc(N3CCN(C(=O)c4ccco4)CC3)nc(N)c2cc1OC.Cl` [Prazo., prazosin hydrochloride], the “Blood Pressure (mmHg) 1 hr.” value is given as −35 mmHg in experiment [1] (1 mg/kg); −57 mmHg in experiment [1] (3 mg/kg); −81 mmHg in experiment [3]; −48 mmHg in experiment [4]; −27 mmHg in experiment [2] (1 mg/kg); −44 mmHg in experiment [2] (3 mg/kg). The “Blood Pressure (mmHg) 3 hrs.” value was −41 mmHg in experiment [1] (1 mg/kg); −69 mmHg in experiment [1] (3 mg/kg); −62 mmHg in experiment [3]; −41 mmHg in experiment [4]; −21 mmHg in experiment [2] (1 mg/kg); −40 mmHg in experiment [2] (3 mg/kg). For the same compound, the “Blood Pressure (mmHg) 6 hrs.” value in experiment [1] (1 mg/kg) is recorded as −42 mmHg; in experiment [1] (3 mg/kg) it was −65 mmHg; in experiment [3] it was −69 mmHg; in experiment [4] it was −43 mmHg; in experiment [2] (1 mg/kg) it was −23 mmHg; in experiment [2] (3 mg/kg), −33 mmHg. The “Blood Pressure (mmHg) 9 hrs.” value in experiment [1] (1 mg/kg) was −41 mmHg; in experiment [1] (3 mg/kg), −61 mmHg; in experiment [3] it was −50 mmHg; in experiment [4], −40 mmHg; in experiment [2] (1 mg/kg), −23 mmHg; in experiment [2] (3 mg/kg) it was −33 mmHg. In addition, the “Blood Pressure (mmHg) 12 hrs.” value was −38 mmHg in experiment [1] (1 mg/kg); −60 mmHg in experiment [1] (3 mg/kg); −36 mmHg in experiment [3]; −36 mmHg in experiment [4]; −24 mmHg in experiment [2] (1 mg/kg); −43 mmHg in experiment [2] (3 mg/kg). For the same compound, the entries for the “lapse” value in experiment [1] and in experiment [3] were “one hour” and “one to two hours”, respectively. The “effect on normal blood pressure” value in experiment [2] is “largely decrease normal blood pressure”.
